*1 amine or outer side, *2 acyl side, *3 side chain or, on linkers, in order; H or OH if unused. Where a SMILES comes first, the peptide text is derived from it. Bridges are numbered along the chain shown (N, C = ends). [ ]: non-standard residue; d: D form. The star is where a group is joined. hPhe(3-Cl-4-CF3) = N[C@@H](CCc1ccc(C(F)(F)F)c(Cl)c1)C(=O)O; NPrPhe(4-CF3) = CCCN[C@@H](Cc1ccc(C(F)(F)F)cc1)C(=O)O; X27 = Cc1ccc(C[C@@H](C(=O)[*:2])N(CC2CCCCC2)[*:1])cc1; X19 = CCCCN([C@@H](Cc1ccc(C)cc1)C(=O)[*:2])[*:1]; NMeGly(cPent) = CN[C@H](C(=O)O)C1CCCC1; Hyp = O=C(O)[C@@H]1C[C@@H](O)CN1; NMeD = CN[C@@H](CC(=O)O)C(=O)O; NMeL = CN[C@@H](CC(C)C)C(=O)O; Morpholide = C1CN(*)CCO1; Ac5c = NC1(C(=O)O)CCCC1; Ac4c = NC1(C(=O)O)CCC1; NEtG = CCNCC(=O)O; Sar = CNCC(=O)O
What was measured:
[1] = molecular target: GDP-bound NRAS wild-type protein (Homo sapiens, UniProt P01111); test: Binding to NRAS by surface plasmon resonance (SPR), Single Cycle Kinetics
Chain of GDP-bound NRAS wild-type protein (P01111 whole entry): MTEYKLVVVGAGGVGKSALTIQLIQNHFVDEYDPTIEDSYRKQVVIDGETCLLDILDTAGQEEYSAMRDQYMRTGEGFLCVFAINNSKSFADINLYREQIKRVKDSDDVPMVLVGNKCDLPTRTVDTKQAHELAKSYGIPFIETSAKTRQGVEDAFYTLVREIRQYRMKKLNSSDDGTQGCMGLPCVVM

[2] = molecular target: GDP-bound HRAS wild-type protein (Homo sapiens, UniProt P01112); test: Binding to HRAS by surface plasmon resonance (SPR), Single Cycle Kinetics
Chain of GDP-bound HRAS wild-type protein (P01112 whole entry): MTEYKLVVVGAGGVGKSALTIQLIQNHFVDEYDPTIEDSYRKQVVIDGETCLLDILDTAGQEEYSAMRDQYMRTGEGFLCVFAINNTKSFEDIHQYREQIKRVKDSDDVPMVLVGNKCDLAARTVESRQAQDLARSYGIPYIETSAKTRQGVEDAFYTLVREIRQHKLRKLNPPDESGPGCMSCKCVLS

[3] = SPR, GDP-bound wild-type proteins

CCCN1C(=O)CN(C)C(=O)CN(CC)C(=O)[C@H]([C@@H](C)CC)NC(=O)[C@H](CC(C)C)N(C)C(=O)C[C@@H](C(=O)N(C)C)N(C)C(=O)[C@H](C2CCCC2)N(C)C(=O)C2(CCC2)NC(=O)[C@@H]2C[C@@H](OCC)CN2C(=O)[C@H](CCc2ccc(C(F)(F)F)c(Cl)c2)NC(=O)CN(C)C(=O)[C@@H]1Cc1ccc(C(F)(F)F)cc1 [PP0428] ([NMeL]I[NEtG][Sar][NPrPhe(4-CF3)][Sar][hPhe(3-Cl-4-CF3)][Hyp](Et)[Ac4c][NMeGly(cPent)][NMeD]-NMe2; lactam N-11)
NRAS/KRAS (ratio of KD value with respect to GDP-bound NRAS wild-type protein to KD value with respect to KRAS) ([1]; SPR): B (a compound having 3 or more and less than 10 is denoted as B) | HRAS/KRAS (ratio of KD value with respect to GDP-bound HRAS wild-type protein to KD value with respect to KRAS) ([2]; SPR): C (A compound having a KD ratio of 0.1 or more and less than 3 is denoted as C)

CCCCN1C(=O)CN(C)C(=O)CN(C)C(=O)[C@H]([C@@H](C)CC)NC(=O)[C@H](CC(C)C)N(C)C(=O)C[C@@H](C(=O)N2CCOCC2)N(C)C(=O)[C@H](C2CCCC2)N(C)C(=O)C2(CCCC2)NC(=O)[C@@H]2CCCN2C(=O)[C@H](CCc2ccc(C(F)(F)F)c(Cl)c2)NC(=O)CN(C)C(=O)[C@@H]1Cc1ccc(C)cc1 [PP0062] ([NMeL]I[Sar][Sar][X19][Sar][hPhe(3-Cl-4-CF3)]P[Ac5c][NMeGly(cPent)][NMeD]-Morpholide; lactam N-11)
NRAS/KRAS (ratio of KD for GDP-bound NRAS wild-type to KD for KRAS) ([1]; SPR): C (A compound having a KD ratio of 0.1 or more and less than 3 is denoted as C) | HRAS/KRAS (ratio of KD for GDP-bound HRAS wild-type to KD for KRAS) ([2]; SPR): C (A compound having a KD ratio of 0.1 or more and less than 3 is denoted as C)

CC[C@H](C)[C@@H]1NC(=O)[C@H](CC(C)C)N(C)C(=O)C[C@@H](C(=O)N2CCOCC2)N(C)C(=O)[C@H](C2CCCC2)N(C)C(=O)C2(CCCC2)NC(=O)[C@@H]2CCCN2C(=O)[C@H](CCc2ccc(C(F)(F)F)c(Cl)c2)NC(=O)CN(C)C(=O)[C@H](Cc2ccc(C)cc2)N(CC2CCCCC2)C(=O)CN(C)C(=O)CN(C)C1=O [PP0097] ([NMeL]I[Sar][Sar][X27][Sar][hPhe(3-Cl-4-CF3)]P[Ac5c][NMeGly(cPent)][NMeD]-Morpholide; lactam N-11)
NRAS/KRAS (ratio of KD for GDP-bound NRAS wild-type to KD for KRAS) ([1]; SPR): C (A compound having a KD ratio of 0.1 or more and less than 3 is denoted as C) | HRAS/KRAS (ratio of KD for GDP-bound HRAS wild-type to KD for KRAS) ([2]; SPR): C (A compound having a KD ratio of 0.1 or more and less than 3 is denoted as C)

CCCO[C@H](C)[C@@H]1NC(=O)[C@H](CC(C)C)N(C)C(=O)C[C@@H](C(=O)N(C)C)N(C)C(=O)[C@H](C2CCCC2)N(C)C(=O)C2(CC(C)(C)C2)NC(=O)[C@@H]2C[C@@H](OCC)CN2C(=O)[C@H](CCc2cc(F)c(C(F)(F)F)c(F)c2)NC(=O)CN(C)C(=O)[C@H](Cc2ccc(C(F)(F)F)cc2)N2CC/C=C\C[C@@H](C2=O)N(C)C(=O)CN(C)C1=O [PP1921]
NRAS/KRAS (ratio of KD value for NRAS to KD value for KRAS) ([1]; KD ratio, GDP-bound NRAS wild-type vs GDP-bound KRAS wild-type, SPR): A (a compound having 10 or more and less than 20 is denoted as A) | HRAS/KRAS (ratio of KD value for HRAS to KD value for KRAS) ([2]; KD ratio, GDP-bound HRAS wild-type vs GDP-bound KRAS wild-type, SPR): A (a compound having 10 or more and less than 20 is denoted as A)

CCC(CC)[C@H]1C(=O)N(C)[C@H](C(=O)N(C)C)CC(=O)N(C)[C@@H](COC)C(=O)N[C@@H]([C@@H](C)CC)C(=O)N(C2CC2)CC(=O)N(C)[C@H]2C/C=C\CCN(C2=O)[C@@H](Cc2ccc(C(F)F)cc2)C(=O)N(C)CC(=O)N[C@@H](CCc2cc(F)c(C(F)(F)F)c(F)c2)C(=O)N2C[C@H](OC3CCCC3)C[C@H]2C(=O)NC2(CC(C)(C)C2)C(=O)N1C [PP2633]
NRAS/KRAS (ratio of KD value with respect to GDP-bound NRAS wild-type protein to KD value with respect to KRAS) ([1]; class symbols): AA (a compound having 20 or more is denoted as AA) | HRAS/KRAS (ratio of KD value with respect to GDP-bound HRAS wild-type protein to KD value with respect to KRAS) ([2]; class symbols): A (a compound having 10 or more and less than 20 is denoted as A)

CCC[C@H]1C(=O)N[C@@H](C2CCCC2)C(=O)N(C)CC(=O)N(C)[C@H]2C/C=C\CCN(C2=O)[C@@H](Cc2ccc(C)cc2)C(=O)N(C)CC(=O)N[C@@H](CCc2ccc(C(F)(F)F)c(OC)c2)C(=O)N2CC3(CC3)C[C@H]2C(=O)NC2(CC(C)(C)C2)C(=O)N(C)[C@@H](C2CCCC2)C(=O)N(C)[C@H](C(=O)N(C)C)CC(=O)N1C [PP2994]
NRAS/KRAS (ratio of KD value with respect to GDP-bound NRAS wild-type protein to KD value with respect to KRAS) [1, 3]: AA (a compound having 20 or more is denoted as AA) | HRAS/KRAS (ratio of KD value with respect to GDP-bound HRAS wild-type protein to KD value with respect to KRAS) [2, 3]: A (a compound having 10 or more and less than 20 is denoted as A)

CCC[C@H]1C(=O)N[C@@H]([C@@H](C)CC)C(=O)N(C2CC2)CC(=O)N(C)[C@H]2C/C=C\CCN(C2=O)[C@@H](Cc2ccc(C)cc2)C(=O)N(C)CC(=O)N[C@@H](CCc2ccc(Cl)c(Cl)c2)C(=O)N2C[C@H](OC3CCC3)C[C@H]2C(=O)NC2(CC(C)(C)C2)C(=O)N(C)[C@@H](C2CCCC2)C(=O)N(C)[C@H](C(=O)N(C)C)CC(=O)N1C [PP2616]
NRAS/KRAS (ratio of KD value with respect to GDP-bound NRAS wild-type protein to KD value with respect to KRAS) ([1]; class symbols): A (a compound having 10 or more and less than 20 is denoted as A) | HRAS/KRAS (ratio of KD value with respect to GDP-bound HRAS wild-type protein to KD value with respect to KRAS) ([2]; class symbols): A (a compound having 10 or more and less than 20 is denoted as A)

From patent publication US20250230193A1, “CYCLIC COMPOUND HAVING SELECTIVE KRAS INHIBITORY EFFECT ON HRAS AND NRAS” (CHUGAI SEIYAKU KABUSHIKI KAISHA, priority 2022, published 2025)
